Source: US8945635B2, “Formulations comprising extracts from primitive plant species (mosses, ferns and lichens) to treat and prevent cancers” (priority 2006, dated 2015)
Read-outs that look alike come from different tables or passages of the source.

Assays:
[1] = test system: Metastatic colon cancer (SW620) MTS cells; assay: Single agent treatment of metastatic colon cancer MTS cells; type: cell-based, human; details: 5 days, 5-fluorouracil 2.5 μM, Gemcitabine 5 μM
Procedure: Metastatic MTS colon cancer (SW620) were treated for 24 hours with extract samples 1 (moss), 2 (moss), 4 (moss), 6 (moss), 5 (moss), 7 (fern), 8 (fern), 9 (moss), all at 50 mg/mL, and for 5 days with the standard chemotherapeutics 5-fluorouracil at 2.5 μM and Gemcitabine at 5 μM.
Metastatic colon cancer (SW620) MTS cells were treated for 24 hours with extract samples 12 (moss), 13 (fern), 14 (lichen), all at 50 mg/mL, and for 5 days with the standard chemotherapeutics 5-fluorouracil at 2.5 μM and Gemcitabine at 5 μM.

[2] = test system: GBM multicellular tumor spheroid (MTS) culture (ATCC crl-2020)
Excerpt: (§1) Carmustine, berberine, curcumin, caffeic acid phenyl ester (CAPE), abscisic acid and a extract sample 19 (fern) were used, singly and in various combinations, to assess their potential effectiveness in promoting in vitro cell death responses in a malignant GBM cell line (ATCC crl-2020). Two different culture models were used in these experiments. The majority of vertebrate cells cultured in vitro grow as monolayers on an artificial substrate, as is the case with GBM cells. Live cells attach to the bottom of a tissue culture plate where they proliferate until the surface is confluent with cells. […] The three dimensional structure of solid tumors makes such tumors more resistant to treatment than a GBM cell monolayer culture. To more closely approximate in vivo conditions a multi-cellular tumor spheroid (MTS) model was used. In this model GBM cells were cultured on a 1% agarose matrix in a 24 well tissue culture dish to form multi cellular aggregates. […] Trypan blue staining and microscopic observation was used to assess cell viability after treatment.
A GBM multicellular tumor spheroid (MTS) culture plate was treated with moderately low concentrations of carmustine (50 μM dose); curcumin (20 μM dose); CAPE (20 μM dose); ABA (400 μM dose) and extract sample 19 (10 mg/mL dose). The treated cultures were incubated for 24 hours at 38° C. and assayed. The dosing conditions were designed to represent sub-optimal dosing conditions.
A GBM multicellular tumor spheroid (MTS) culture plate was treated with different two agent and three agent combinations including curcumin and extract sample 13; carmustine and extract sample 13; carmustine and curcumin; and carmustine and curcumin and extract sample 13. The agent concentrations were the same as in the single agent testing (carmustine (50 μM dose); curcumin (20 μM dose); CAPE (20 μM dose); ABA (400 μM dose) and extract sample 13 (10 mg/mL dose).
The treated cultures were incubated for 24 hours at 38° C. and assayed. The dosing conditions were designed to represent sub-optimal dosing conditions.

[3] = test system: GBM monolayer culture (ATCC crl-2020); details: for Viability: GBM monolayer, 12 hours at 38° C., carmustine 50 μM, curcumin 20 μM, CAPE 20 μM, ABA 400 μM, extract sample 19 10 mg/mL
Excerpt: as §1
A GBM monolayer culture plate was treated with moderately low concentrations of carmustine (50 μM dose); curcumin (20 μM dose); CAPE (20 μM dose); ABA (400 μM dose) and extract sample 19 (10 mg/mL dose). The treated cultures were incubated for 12 hours at 38° C. and assayed. The dosing conditions were sub-optimal dosing conditions designed to allow better assessment of the combined agent results.

[4] = test system: Glioblastoma Multiforme (GBM); details: cited from earlier work
[5] = Table 18, standard chemotherapeutics
[6] = Table 19, standard chemotherapeutics
[7] = GBM MTS cell cultures, agent used alone
[8] = GBM monolayer cell cultures, agent used alone

Compound	% dead cells [1, 5]	% live cells [1, 5]	% dead cells [1, 6]	% live cells [1, 6]	cytotoxicity of single agent in words [2, 7]	cytotoxicity of single agent in words [3, 8]	Viability [3]	other results
O=c1[nH]cc(F)c(=O)[nH]1 [5-fluorouracil]	55%	45%	75%	25%	–	–	–	–
CC1=CC(=O)CC(C)(C)[C@@]1(O)/C=C/C(C)=C\C(=O)O [ABA, abscisic acid]	–	–	–	–	failed to produce significant cytotoxic responses	failed to produce significant cytotoxic responses	100%	–
Nc1ccn([C@@H]2O[C@H](CO)[C@@H](O)C2(F)F)c(=O)n1 [Gemcitabine]	20%	80%	95%	5%	–	–	–	–
O=NN(CCCl)C(=O)NCCCl [carmustine, 1,3-bis(2-chloroethyl)-1-nitrosourea]	–	–	–	–	only low level cytotoxicity	only low level cytotoxicity	100%	side effects ([4]; Intravenous administration): a decrease of bone marrow blood cells, lung damage and death; mean survival rate ([4]; applied in time release fashion to the tumor site, from 11.6 months): 13.9 months
COc1cc(/C=C/C(=O)CC(=O)/C=C/c2ccc(O)c(OC)c2)ccc1O [curcumin]	–	–	–	–	–	–	–	cytotoxicity of single agent in words [2]: failed to produce significant cytotoxic responses; cytotoxicity of single agent in words [3]: failed to produce significant cytotoxic responses
caffeic acid phenyl ester [CAPE]	–	–	–	–	failed to produce significant cytotoxic responses	failed to produce significant cytotoxic responses	100%	–
